From patent US6821962B2, “Quinoline and quinoxaline compounds which inhibit platelet-derived growth factor and /or p56lck tyrosine kinases” (Aventis Pharmaceuticals Inc., priority 1997, dated 2004)
Counter-ions that a name gives are not always drawn.

Assays:
Lck = Lck (Homo sapiens, UniProt P06239); details: background, literature report; cited from earlier work
Fyn = Fyn (Homo sapiens, UniProt P06241); details: background, literature report (Hanke et al.); cited from earlier work
Fyn, sequence (P06241 whole entry, species assumed): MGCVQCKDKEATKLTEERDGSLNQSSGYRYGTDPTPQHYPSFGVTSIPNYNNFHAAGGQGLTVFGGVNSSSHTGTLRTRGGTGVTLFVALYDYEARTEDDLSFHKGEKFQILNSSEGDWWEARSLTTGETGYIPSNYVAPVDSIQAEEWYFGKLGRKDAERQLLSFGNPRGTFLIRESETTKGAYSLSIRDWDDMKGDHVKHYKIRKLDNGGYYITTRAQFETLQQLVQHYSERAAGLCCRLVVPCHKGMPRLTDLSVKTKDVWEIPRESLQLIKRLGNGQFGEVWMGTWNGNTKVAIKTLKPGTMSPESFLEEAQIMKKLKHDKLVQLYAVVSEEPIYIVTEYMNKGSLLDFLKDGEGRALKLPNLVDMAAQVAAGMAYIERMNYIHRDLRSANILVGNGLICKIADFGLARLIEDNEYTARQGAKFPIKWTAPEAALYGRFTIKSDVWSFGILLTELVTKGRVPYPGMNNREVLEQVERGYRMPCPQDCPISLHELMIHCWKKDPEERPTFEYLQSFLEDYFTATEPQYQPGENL

Lck, sequence (P06239 whole entry, species assumed): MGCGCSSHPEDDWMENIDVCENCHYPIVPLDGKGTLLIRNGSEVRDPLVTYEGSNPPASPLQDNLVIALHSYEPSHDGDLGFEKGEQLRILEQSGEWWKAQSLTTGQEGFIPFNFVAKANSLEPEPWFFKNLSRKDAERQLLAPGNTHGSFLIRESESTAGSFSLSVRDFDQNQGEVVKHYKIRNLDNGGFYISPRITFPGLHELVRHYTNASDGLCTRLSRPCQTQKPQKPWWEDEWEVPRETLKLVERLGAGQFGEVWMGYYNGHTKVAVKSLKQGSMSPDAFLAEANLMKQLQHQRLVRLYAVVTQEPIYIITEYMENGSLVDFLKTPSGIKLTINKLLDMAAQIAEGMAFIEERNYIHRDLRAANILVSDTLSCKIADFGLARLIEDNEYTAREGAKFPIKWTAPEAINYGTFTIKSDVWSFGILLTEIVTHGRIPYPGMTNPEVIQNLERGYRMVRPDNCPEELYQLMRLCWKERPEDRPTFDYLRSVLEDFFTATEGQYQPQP

Row | Compound | melting point | potency against Lck (in words) (Lck) | potency against Fyn (in words) (Fyn)
1 | CC(C)Oc1ccc2nc(Nc3ccccc3)cnc2c1.Cl | 205 to 210 °C (dec.) | – | –
2 | Oc1ccc2nc(Nc3ccccc3)cnc2c1 [Example 8, 2-Anilino-6-quinoxalinol] | 211 to 213 °C | – | –
3 | c1ccc(Nc2cnc3cc(O[C@@H]4CCOC4)ccc3n2)cc1 [Example 9, Phenyl-[6-(tetrahydrofuran-3-(R)-yl-oxy)quinoxalin-2-yl]amine] | 173 to 175 °C | – | –
4 | COc1cc2cc(NCC(C)(C)CO)cnc2cc1OC [Example 13, 3-(6,7-Dimethoxyquinolin-3-yl-amino)-2,2-dimethyl-propan-1-ol] | 170 to 173.5 °C | – | –
5 | COc1cc2ncc(NC3CCCCC3)nc2cc1N1CCOCC1 [Example 14, Cyclohexyl-(6-methoxy-7-morpholin-4-yl-quinoxalin-2-yl)-amine] | 194 to 196 °C | – | –
6 | COc1cc2ncc(N[C@@H]3C[C@H]4CC[C@@H]3C4)nc2cc1OC [Example 22, (1R,2R,4S)-(+)-Bicyclo[2.2.1]hept-2-yl-(6,7-dimethoxyquinoxalin-2-yl)-amine] | 184 to 186 °C | – | –
7 | Cc1ccc(-c2nn(C(C)(C)C)c3ncnc(N)c23)cc1 [PP1] | – | low nanomolar | low nanomolar

The next lines start with results.

Row | melting point | Compound | potency against Lck (in words) (Lck) | potency against Fyn (in words) (Fyn)
8 | 185 to 190 °C (dec.) | COc1cc2ncc(CNC3CCCCC3)nc2cc1OC (as salt: HCl) [Example 11, Cyclohexyl-(6,7-dimethoxyquinoxalin-2-ylmethyl)-amine] | – | –
9 | 188 to 189.5 °C | COc1cc2ncc(NC3CCCCC3)nc2cc1OC [Example 3, 2-cyclohexylamino-6,7-dimethoxyquinoxaline] | – | –
10 | 75 to 78 °C | COc1cc2ncc(OC3CCCCC3)nc2cc1OC1CCCCC1 [Example 10, 2,7-Bis-cyclohexyloxy-6-methoxy-quinoxaline] | – | –
